Results reported in patent US20040014683A1, “Sugar-derived gellant for hydrogel formation” (priority 2001, published 2004).

Assay: Gel-forming ability test (heat to dissolve, cool to 25° C.)
Format: physicochemical
Settings: 1 mg gelatinizer in water (900 mg) and methanol (100 mg); heated, gradually cooled, left at room temperature approximately 2-5 hours; tube inverted
Method: The dodecanoylaminophenol-β-D-glucopyranoside and dodecanoylaminophenol-β-D-galactopyranoside (1 mg of each) obtained in the above experiments were respectively weighed out into test tubes, and a mixed solvent of water (900 mg) and methanol (100 mg) was added. The mixture was heated to ensure complete dissolution. Subsequently, it was gradually cooled, and left at room temperature for approximately 2-5 hours.
The gel-forming ability was evaluated as follows.
The solvent was water (including a small amount of methanol and ethanol), methanol, ethanol, 1-butanol, t-butanol, tetrahydrofuran, chloroform, dichloromethane, n-hexane, ethyl acetate, dimethylformamide or dimethyl sulfoxide.
One of the aforesaid solvents was mixed in a test tube wherein the two types of gelatinizer prepared in the Examples were sealed such that the concentration of gelatinizer was 0.1-3.0 wt %, and this mixture was heated until the solids dissolved. The resulting solution was cooled to 25° C. for one hour. The gelatinizer and solvent were introduced into a test tube capped by a diaphragm, and heated in the oil bath until the solids dissolved. This solution was cooled to 25° C.

Row | Substance | hydrated gel formation
1 | dodecanoylaminophenol-β-D-galactopyranoside | hydrated gel which did not collapse even when inverted
2 | dodecanoylaminophenol-β-D-glucopyranoside | hydrated gel which did not collapse even when inverted
